What was measured:
Anas platyrhynchos = settings: acute; oral; unspecified; mortality
Apis mellifera = settings: acute, mortality
Canidae = settings: subchronic; duration: 90 days; oral; Dog Other
Folsomia candida = settings: chronic/long-term; duration: 28 days; mortality
Landoltia sp. = settings: chronic/long-term; duration: 8 weeks; frond number
Mus musculus = settings: chronic; duration: 18 months; body weight
Oncorhynchus mykiss = settings: acute; duration: 96 hours; mortality
Tagia sp. = settings: chronic/long-term; duration: 56 days; growth

Question: How did the LD50 (Anas platyrhynchos) turn out when `COC(=O)c1ccc(CNS(C)(=O)=O)cc1S(=O)(=O)NC(=O)Nc1nc(OC)cc(OC)n1` [Mesosulfuron-methyl] was run?
Answer: > 2000 mg/kg-day

Question: And the LD50 (Apis mellifera; dermal)?
Answer: > 100 µg/piece

Question: And the LD50 (Apis mellifera; oral, unspecified)?
Answer: > 106 µg/piece

Question: What about the NOAEL (Canidae) of the same compound?
Answer: 648 mg/kg-day

Question: And the LD50 (Colinus virginianus; acute, oral, mortality)?
Answer: > 2000 mg/kg-day

Question: What about the NOEL (Colinus virginianus; chronic) of the same compound?
Answer: 93 mg/kg-day

Question: What about the NOEC (Folsomia candida) of the same compound?
Answer: 1000 mg/kg

Question: And the NOEC (Landoltia sp.)?
Answer: 0.000388 mg/L

Question: What about the NOAEL (Mus musculus) of the same compound?
Answer: 103 mg/kg-day

Question: And the LC50 (Oncorhynchus mykiss)?
Answer: > 100 µg/mL

Question: And the LD50 (Rattus norvegicus; acute, oral, mortality)?
Answer: > 5000 mg/kg

Question: What about the NOEL (Rattus norvegicus; reproduction developmental, no effects) of the same compound?
Answer: 840 mg/kg-day

Question: And the NOEC (Tagia sp.)?
Answer: 125 mg/kg
